Laboratory results as given in patent US20050203013A1, “Methods for inhibiting vascular permeability” (priority 2002, published 2005).

How the values were obtained:
[1] = test system: A2058 human melanoma tumor vessel permeability; assay: Miles assay on tumor-bearing mice (Example 2); format: in vivo, SCID mice; settings: 30 mg/kg/day for three days
Experimental: One of the problems with angiogenesis-dependent diseases is increased vessel permeability (due to high levels of VPF) which results in edema and loss of proteins. A decrease in vessel permeability is beneficial in those diseases. We have found, using the Miles assay ([…], et al., Cancer Res, 56:172-181 (1996)), that free and bound TNP-470 block permeability. Briefly, a dye, Evans Blue (1% in PBS), was injected i.v. to anesthesized mice. After 10 min, human recombinant VEGF165 (50 ng/50 μl) was injected intradermally into the back skin. Leakage of protein-bound dye was detected as blue spots on the underside of the back skin surrounding the injection site. After 20 min mice were euthanized. Then, the skin was excised, left in formamide for 5 days to be extracted and the solution read at 620 nm. Putative angiogenesis inhibitors such as free and conjugated TNP-470 were injected daily 3 days (30 mg/kg/day) prior to the VEGF challenge. The same was repeated on tumor-bearing mice to evaluate the effect of angiogenesis inhibitors on tumor vessel permeability.

[2] = test system: IL-2-induced pulmonary edema; assay: IL-2 associated pulmonary edema; format: in vivo, C57B1/6J male mice
Experimental: C57B1/6J male mice were injected with TNP-470 (30 mg/kg daily) or saline subcutaneously (s.c.) for three days. Then mice were injected with IL-2 (1.2×106 units/100 μl) or saline intraperitoneally (i.p.) 3 times a day for 5 days. At termination mice were euthanized and lungs were dissected, weighed, fixed and processed for H & E staining.

BCE cells = assay: Junction protein staining of BCE cells treated with TNP-470; format: cell-based, Bovine; settings: 3 days in culture, stimulated by VEGF or PAF
Experimental: BCE cells were grown on a coverslip glass in a 24-well plate (200,000 cells/well) in DMEM+10% BCS+3 ng/ml bFGF. Cells were treated with TNP-470 for 3 days in culture. Cells were stimulated with VEGF (5 ng/ml) or PAF (100 nM) for 20 min. Cells were stained for occludin, claudin, ZO-1, beta-catenin and VE-cadherin with fluorescent antibodies.

VEGFR-2 = VEGFR-2 phosphorylation in HUVEC; format: cell-based, Human; settings: 5 ng/ml for 2 hours
Experimental: Serum-starved (0.1% FBS in EBM-2 media for 24 hours) HMVEC-d or HUVEC were treated with 5 ng/ml TNP-470 and HPMA copolymer-TNP-470 at 37° C. for 2 hours, and then stimulated with 10 ng/ml of VEGF for 5 minutes. Stimulation was stopped by adding cold PBS. […] After washing the beads with precipitation buffer, immunoprecipitates were resuspended in 2× SDS sample buffer for Western blot analysis with an antibody against phosphorylated tyrosine (pTyr).

Ca2+ influx in HMVEC-d = assay: Intracellular Ca2+ release; format: cell-based, Human
Experimental: For detaching cells, serum-starved HMVEC-d were incubated with 4 ml of collagenase solution (0.2 mg/ml collagenase, 0.2 mg/ml soybean trypsin inhibitor, 1 mg/ml BSA, and 2 mM EDTA in PBS) at 37° C. for 30 minutes. Cell pellets were washed with 2 ml of Ca^2+ buffer (5 mM KCl, 140 mM NaCl, 1 mM CaCl2, 1 mM MgCl2, 5.6 mM glucose, 0.1% BSA, 0.25 mM sulfinpyrazone, and 10 mM HEPEs, pH 7.5) and then resuspended in 2 ml of the same buffer containing 5 ng/ml TNP-470. The cells were incubated at 37° C. for 2 hours in suspension. During the last 30 minutes of incubation, 1 μg/ml Fura-2-AM Fura 2-AM (acetoxymethyl ester derivative of Fura 2) and 0.02% pluronic F-127 were added to the suspension. Cells (106) were collected and resuspended in 2 ml Ca^2+ buffer for VPF/VEGF (10 ng/ml), PAF (20 nM), or histamine ([…]) stimulation. Intracellular Ca^2+ concentrations were measured with the DeltaScan Illumination System (Photon Technology International Inc.) using Felix software, while rocking the tubes.

MAPK = assay: Phosphorylation of MAPK; format: cell-based, Human; settings: HMVEC-d
Experimental: Serum-starved HMVEC-d were treated with 5 ng/ml TNP-470 at 37° C. for 2 hours, and then stimulated with 10 ng/ml of VEGF for 5 minutes. Stimulation was stopped by adding cold PBS. Cells were lysed with cold radioimmune precipitation buffer. Cellular extracts (20 μg) were immunoblotted with an antibody against phosphorylated MAPK (p-MAPK) (Cell Signaling Technology Inc.). The blot was stripped and reprobed with an antibody against MAPK to confirm equal protein loading.

HMVEC-d cells = assay: Cell migration assay (modified Boyden chamber); format: cell-based, Human
Experimental: The motility response of HMVEC-d cells was assayed using a modified Boyden chamber. Cells were plated in T75-cm^2 flasks at 0.5×10^6 cells per flask and allowed to grow for 48 hours (˜70% confluent) prior to the migration assay. To facilitate cell adhesion, the upper membrane of a transwell (8 μm pore; Costar) was coated with fibronectin (10 μg/ml; Becton Dickinson) overnight at 4° C. Coated membranes were rinsed with PBS and allowed to air dry immediately before use. Cells were detached by trypsinization, treated with trypsinization neutralization solution (Clonetics), and resuspended at a final concentration of […] in serum-free EBM-2 containing 0.1% BSA or free or conjugated TNP470 at equivalent concentrations of 1 ng/ml. Cells (50,000 in 100 μl) were added to the upper chamber of the transwell. Following a 2 hours incubation, EBM-2 or EBM-2 supplemented with VPF/VEGF (5 ng/ml) was added to the lower chamber and cells were allowed to migrate toward the bottom chamber for 4 hours in a humidified incubator containing 5% CO2. […] The number of migrated cells was measured using microscopy (three fields from each membrane were captured using a 10× objective), and images were captured with a CCD camera using SPOT software. Total migration per membrane was quantified from the captured images using Scion Image software (National Institutes of Health). […]

CO[C@@H]1[C@H](OC(=O)NC(=O)CCl)CC[C@]2(CO2)[C@H]1[C@@]1(C)O[C@@H]1CC=C(C)C [TNP-470]
tumor vessel permeability [1]: decreased
total body weight ([2]; 3 days treatment): did not affect total body weight
lung pathological features (congestion, edema, fibrin deposition, mononuclear infiltrate) ([2]; IL-2 treated mice): greatly reduced
lung weight ([2]; mice treated with both IL-2 and TNP-470): 170.2 ± 10.1 mg
effect on occludin, claudin, ZO-1, beta-catenin or VE-cadherin (BCE cells): did not see any significant and reproducible effect
VPF/VEGF-induced phosphorylation of VEGFR-2 (VEGFR-2): significantly reduced
Ca2+ influx induced by PAF (Ca2+ influx in HMVEC-d): decreased
Ca2+ influx induced by VPF/VEGF (Ca2+ influx in HMVEC-d): decreased
Ca2+ influx induced by histamine (Ca2+ influx in HMVEC-d): decreased
VPF/VEGF-induced MAPK phosphorylation (MAPK): inhibited
inhibition at 0.001 µg/mL (HMVEC-d cells; Homo sapiens, 1 ng/ml, 2 hours pretreatment, 4 hours migration, read-out: inhibition of chemotactic migration response to VPF/VEGF): 68%
inhibition of basal migration (HMVEC-d cells; absence of VPF/VEGF): 70%
